From BindingDB's records for doi:10.7270/Q2251GJ9 (The Scripps Research Institute Molecular Screening Center, 2007)
pEC50: −log10 of the molar value.

Molecular target: Sphingosine 1-phosphate receptor 1 (Homo sapiens, UniProt P21453)
Experiment: direct activation of human S1P1 – cell-based, agonist mode, 60K MLSMR set, dose response (AID 468)
[1] = inactive by the depositor's call

Sphingosine 1-phosphate receptor 1, sequence (P21453 whole entry): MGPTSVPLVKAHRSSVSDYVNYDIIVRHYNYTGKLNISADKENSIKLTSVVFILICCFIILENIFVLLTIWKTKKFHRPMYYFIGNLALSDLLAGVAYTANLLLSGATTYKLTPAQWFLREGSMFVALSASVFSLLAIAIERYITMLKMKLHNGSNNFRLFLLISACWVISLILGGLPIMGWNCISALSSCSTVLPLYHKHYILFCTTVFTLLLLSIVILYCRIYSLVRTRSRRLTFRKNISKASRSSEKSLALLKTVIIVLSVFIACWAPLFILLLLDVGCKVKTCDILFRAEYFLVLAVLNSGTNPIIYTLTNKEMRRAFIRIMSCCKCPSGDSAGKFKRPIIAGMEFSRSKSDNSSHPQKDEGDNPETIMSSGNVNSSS

Structure (SMILES) | pEC50 | pEC50 [1]
Oc1ccc(-c2nnc(SCC3CCCCC3)o2)cc1 [4-(5-Cyclohexylmethylsulfanyl-[1,3,4]oxadiazol-2-yl)-phenol] | 6.26 | –
COC(=O)c1ccc(CSc2nc3ccccc3c(=O)n2Cc2ccco2)o1 [5-[[[3-(2-furanylmethyl)-4-oxo-2-quinazolinyl]thio]methyl]-2-furancarboxylic acid methyl ester] | – | 4.72
FC(F)(F)c1ccc(N2CCN(c3cc(-c4ccccc4)nc4ncnn34)CC2)nc1 [5-Phenyl-7-[4-(5-trifluoromethyl-pyridin-2-yl)-piperazin-1-yl]-[1,2,4]triazolo[1,5-a]pyrimidine] | – | 4.50
CC(C)c1cc(C(=O)N2CCN(C(c3ccccc3)c3ccccc3)CC2)no1 [(4-benzhydrylpiperazin-1-yl)-(5-propan-2-yl-1,2-oxazol-3-yl)methanone] | < 5.00 | –
Cc1noc(C)c1S(=O)(=O)N(CC(=O)Nc1ccc2c(c1)OCCO2)c1ccc(C(C)C)cc1 [MLS000117406] | – | 4.85
O=C(c1ccc(Cl)s1)N1CCN(c2nc3ccccc3s2)CC1 [MLS000100900] | < 4.52 | –
CCN(CC)S(=O)(=O)c1cc(C(=O)Nc2ccncc2)ccc1Cl [4-chloranyl-3-(diethylsulfamoyl)-N-pyridin-4-yl-benzamide] | – | 4.28
COc1cccc2sc(Nc3nc(-c4ccccn4)cs3)nc12 [(4-methoxy-1,3-benzothiazol-2-yl)-[4-(2-pyridyl)thiazol-2-yl]amine] | 5.56 | –
O=C(CSCC(=O)N1CCCCC1)Nc1nc(-c2cccs2)cs1 [2-(2-oxidanylidene-2-piperidin-1-yl-ethyl)sulfanyl-N-(4-thiophen-2-yl-1,3-thiazol-2-yl)ethanamide] | < 4.52 | –
COc1ccc(Cc2nc(-c3ccc(-n4cccc4)cc3)no2)cc1OC [3-(4-pyrrol-1-ylphenyl)-5-veratryl-1,2,4-oxadiazole] | – | 4.86
OCC12C=CC(O1)c1c2c(O)n(-c2ccccc2-c2ccccc2)c1O (stereo unspecified) [7-(hydroxymethyl)-2-(2-phenylphenyl)-4,7a-dihydro-3aH-octahydro-1H-4,7-epoxyisoindole-1,3-dione] | 5.26 | –
Clc1ccc(CCNc2[nH]cnc3ncnc2-3)cc1 [SMR000017624] | 5.01 | –
CCOC(=O)CN(C(=O)CSc1nnc(-c2cccc(OC)c2)o1)c1ccc(F)cc1 [((4-Fluoro-phenyl)-{2-[5-(3-methoxy-phenyl)-[1,3,4]oxadiazol-2-ylsulfanyl]-acetyl}-amino)-acetic acid ethyl ester] | 5.50 | –
CCN(CC)S(=O)(=O)c1cccc(S(=O)(=O)c2cccc(S(=O)(=O)N(CC)CC)c2)c1 [3-[3-(diethylsulfamoyl)phenyl]sulfonyl-N,N-diethyl-benzenesulfonamide] | – | 4.71
Clc1ccc(NCn2cncn2)nc1 | < 4.02 | –
CCCc1ccc(Oc2c[nH]nc2-c2ccc(O)cc2O)cc1 [(4E)-3-hydroxy-4-[4-(4-propylphenoxy)-1,2-dihydropyrazol-3-ylidene]-1-cyclohexa-2,5-dienone] | 4.81 | –
Cc1ccc(N2C(=O)c3cccc4c(N5CCN(C)CC5)ccc(c34)C2=O)c2cccnc12 [6-(4-methyl-1-piperazinyl)-2-(8-methyl-5-quinolinyl)-1H-benzo[de]isoquinoline-1,3(2H)-dione] | < 4.52 | –
Nn1c(Nc2ccccc2)nc2sc3c(c2c1=O)CCC3 [2-amino-3-anilino-7,8-dihydro-6H-cyclopenta[2,3]thieno[2,4-b]pyrimidin-1-one] | – | 4.79
CN(C)c1oc(-c2ccc(OCc3ccccc3)cc2)nc1C#N [2-(4-benzoxyphenyl)-5-(dimethylamino)oxazole-4-carbonitrile] | 5.49 | –

Structure (SMILES) | pEC50 | pEC50 [1]
CC1(C)CC(=O)C(=CNc2ccc3[nH]ncc3c2)C(=O)C1 [SMR000111453] | 5.29 | –
O=C(Nc1ccc(OC(F)F)c(Cl)c1)Nc1ccc2c(c1)OCO2 [1-(1,3-benzodioxol-5-yl)-3-[3-chloro-4-(difluoromethoxy)phenyl]urea] | 5.11 | –
COc1ccc(-c2nc3cc(NC(=O)Cc4ccc(OC)c(OC)c4)ccc3o2)cc1 [2-(3,4-dimethoxyphenyl)-N-[2-(4-methoxyphenyl)-1,3-benzoxazol-5-yl]acetamide] | 5.10 | –
O=C(CCC(=O)N(Cc1ccco1)C(C(=O)NC1CCCC1)c1ccncc1)Nc1cccnc1 (stereo unspecified) [MLS000033292] | < 4.02 | –
Cc1n[nH]c(C)c1N1C(=O)c2cccc3c(N4CCCCCC4)ccc(c23)C1=O | – | 4.86
CCCn1c(NC(=O)c2cccc(S(=O)(=O)N3CCCC3)c2)nc2ccccc21 [MLS000057540] | 5.05 | –
COCC(=O)Nc1cccc(C(F)(F)F)c1 [2-methoxy-N-[3-(trifluoromethyl)phenyl]acetamide] | < 4.02 | –
Cc1nnc(SC(=O)N2c3ccccc3Sc3ccccc32)s1 [10-phenothiazinecarbothioic acid S-(5-methyl-1,3,4-thiadiazol-2-yl) ester] | 5.45 | –
COc1ccccc1Oc1ccc2c(c1)C(=O)N(c1ccc(O)cc1)C2=O [2-(4-hydroxyphenyl)-5-(2-methoxyphenoxy)isoindole-1,3-dione] | 6.66 | –
CCn1c(NC(=O)c2cccc(Cn3cc(Cl)cn3)c2)nc2ccccc21 [3-[(4-chloranylpyrazol-1-yl)methyl]-N-(1-ethylbenzimidazol-2-yl)benzamide] | – | 4.85
CC(C)COC(=O)NCCOC(=O)Nc1cccc(Cl)c1 [2-(2-methylpropoxycarbonylamino)ethyl N-(3-chlorophenyl)carbamate] | 5.21 | –
Cc1ccccc1-c1noc(-c2ccc(O)cc2)n1 [4-[3-(2-methylphenyl)-2H-1,2,4-oxadiazol-5-ylidene]-1-cyclohexa-2,5-dienone] | 5.07 | –
CC(=N)C(C#N)C(=O)CSc1nnc(SCc2ccc(Cl)cc2)s1 (stereo unspecified) [(E)-3-amino-2-[2-[[5-[(4-chlorobenzyl)thio]-1,3,4-thiadiazol-2-yl]thio]acetyl]but-2-enenitrile] | 5.05 | –
COc1ccc(-n2nc3ccc(NS(C)(=O)=O)cc3n2)cc1Cl [MLS000049114] | 6.83 | –
Cc1cc(NC(=O)c2oc3ccccc3c2C)ccc1-n1cnnn1 [3-Methyl-benzofuran-2-carboxylic acid (3-methyl-4-tetrazol-1-yl-phenyl)-amide] | 5.13 | –
CSc1ccc(S(=O)(=O)Nc2ccc3c(c2)OCCO3)cc1 [MLS000115922] | – | 4.87
CCOc1ccc(-c2nnc(-c3cccnc3)o2)cc1OCC [2-(3,4-diethoxyphenyl)-5-(3-pyridinyl)-1,3,4-oxadiazole] | 5.48 | –
CCOC(=O)c1cccc2c1-c1ccccc1C2N=O (stereo unspecified) [9-hydroximinofluorene-4-carboxylic acid ethyl ester] | 4.89 | –
CCCCn1ccnc1C(=O)c1cccc(S(=O)(=O)N2c3ccccc3CC2C)c1 (stereo unspecified) [(1-butyl-2-imidazolyl)-[3-[(2-methyl-2,3-dihydroindol-1-yl)sulfonyl]phenyl]methanone] | 5.03 | –

Structure (SMILES) | pEC50 | pEC50 [1]
Cc1ccc(C)c(-n2nnnc2Sc2nnnn2-c2ccccc2)c1 [1-(2,5-dimethylphenyl)-5-(1-phenyltetrazol-5-yl)sulfanyltetrazole] | – | 4.89
COC(=O)c1cc(CSc2nnc(-c3ccccc3)c(-c3ccccc3)n2)oc1C [5-[[(5,6-diphenyl-1,2,4-triazin-3-yl)thio]methyl]-2-methyl-3-furancarboxylic acid methyl ester] | 5.76 | –
CCOC(=O)c1oc2ccc(S(=O)(=O)n3nc(-c4ccc(OC)cc4)cc3N)cc2c1C [5-[5-amino-3-(4-methoxyphenyl)pyrazol-1-yl]sulfonyl-3-methyl-coumarilic acid ethyl ester] | – | 4.52
CCOC(=O)c1oc2cc(O)c(CC)cc2c(=O)c1-c1ccc2c(c1)OCCO2 [3-(2,3-dihydro-1,4-benzodioxin-6-yl)-6-ethyl-7-hydroxy-4-keto-chromene-2-carboxylic acid ethyl ester] | < 5.00 | –
O=C(Nc1ccc(N2CCCCC2)c(Cl)c1)c1nnc[nH]1 | 6.07 | –
CCOC(=O)c1cnc(-n2nc(C)cc2C)nc1NC1CCCCC1 [4-(cyclohexylamino)-2-(3,5-dimethyl-1-pyrazolyl)-5-pyrimidinecarboxylic acid ethyl ester] | 5.20 | –
O=S1(=O)C=C(Sc2nc3cc(Cl)ccc3o2)c2ccccc21 [SMR000019512] | < 4.52 | –
COc1ccc(OC)c(-c2cc(C(=O)Nc3c(C)nn(Cc4ccc(Cl)cc4)c3C)no2)c1 [MLS000087191] | – | 4.68
CCCn1c(CNc2ccc(Br)cc2)nc2ccccc21 [(4-bromophenyl)-[(1-propylbenzimidazol-2-yl)methyl]amine] | – | 4.92
CCCCCn1c(=O)c(C(=O)NCc2ccncc2)c(O)c2ccccc21 [1-amyl-2-hydroxy-4-keto-N-(4-pyridylmethyl)quinoline-3-carboxamide] | – | 4.70
Cc1nc(NC(C)c2ccccc2)c2oc3ccccc3c2n1 (stereo unspecified) [(2-methylbenzofuro[3,2-d]pyrimidin-4-yl)-(1-phenylethyl)amine] | 5.16 | –
COc1ccc(/N=c2\scc(-c3ccc(S(=O)(=O)N4CCOCC4)cc3)n2CCCO)cc1 [3-[(2Z)-2-[(4-methoxyphenyl)imino]-4-[4-(morpholin-4-ylsulfonyl)phenyl]-1,3-thiazol-3(2H)-yl]propan-1-ol] | 4.88 | –
c1ccc(-c2ccc(-c3nc(-c4cccnc4)no3)cc2)cc1 [5-(4-phenylphenyl)-3-(3-pyridinyl)-1,2,4-oxadiazole] | 5.63 | –
CC(C)c1cc(C(F)(F)F)n2nc(C(=O)Nc3ccc4c(c3)OCO4)cc2n1 [5-Isopropyl-7-trifluoromethyl-pyrazolo[1,5-a]pyrimidine-2-carboxylic acid benzo[1,3]dioxol-5-ylamide] | 5.59 | –
CCC(NCCOc1ccc(Cl)cc1)=C1C(=O)N(C)C(=O)N(C)C1=O [5-[1-[2-(4-chlorophenoxy)ethylamino]propylidene]-1,3-dimethyl-1,3-diazinane-2,4,6-trione] | 5.30 | –
Oc1ccc(-c2nnc(-c3ccc(O)cc3)nn2)cc1 [4,4'-(1,2,4,5-tetrazine-3,6-diyl)diphenol] | < 5.00 | –
CC(=O)N1CCCc2cc(S(=O)(=O)NCCC3=CCCCC3)ccc21 [1-acetyl-N-(2-cyclohex-1-en-1-ylethyl)-1,2,3,4-tetrahydroquinoline-6-sulfonamide] | – | 4.84
CCCCOc1ccc(S(=O)(=O)n2c(C)nc3ccccc32)cc1 [1-(4-butoxyphenyl)sulfonyl-2-methyl-benzimidazole] | – | 4.64
